Experimental data reported in patent US20230226212A1, “MUSCLE-TARGETING COMPLEXES AND USES THEREOF” (Dyne Therapeutics, Inc., priority 2020, published 2023).
Like-named read-outs stand apart in the source and are kept apart here.

How the values were obtained:
[1] = tested on: DMPK; assay: DMPK knockdown by unconjugated PMOs in primary human myotubes (Example 23); assay type: cell-based; details: unconjugated PMO; 3 days; qPCR
Experimental: Additional DMPK targeting oligonucleotides (PMOs) were designed and tested for their activity in reducing DMPK expression in primary human myotubes. Wild-type primary myoblasts were cultured in PromoCell Skeletal Muscle growth medium with 5% FBS and penicillin/streptomycin until nearly confluent. Cells were then seeded into a 96 well plate at 50000 cells per well and allowed to recover for 24 hours. Cells were then differentiated in a differentiation medium of DMEM with glutamine and penicillin/streptomycin for 7 days. Cells were then treated with the unconjugated PMO for 3 days. Total RNA was collected from cells, cDNA was synthesized and DMPK expression was measured by qPCR.

[2] = tested on: mdx mice; assay: open field chamber with hind limb fatigue challenge in mdx mice (Example 14); assay type: in vivo, mouse; details: single i.v. dose 30 mg/kg, two weeks after injection, hind limb fatigue challenge between stages
Experimental: (§1) Each experimental condition was replicated in five mdx mice. Five wild-type mice (healthy mice) were also dosed with vehicle control (saline).
Two weeks after injection, the functional activity of all treated mice was determined using an open field chamber experiment. The experiment involved three consecutive stages: (1) a 10-minute period during which each mouse was placed into an open field chamber; (2) a 10-minute period during which each mouse was subjected to a hind limb fatigue challenge; and (3) a 10-minute period during which each mouse was placed into an open field chamber. The total horizontal distances traveled during stages (1) and (3) were collected. The percent change in the total distance traveled between the first and second tests.

[3] = tested on: creatine kinase; assay: creatine kinase activity levels in mdx mice (Example 14); assay type: in vivo, mouse; details: single i.v. dose 30 mg/kg, two and four weeks after injection
Experimental: as §1
All mice in this Example were further tested for creatine kinase activity levels two weeks and four weeks after injection.

[4] = tested on: mdx mice; assay: cage running wheel test in mdx mice (Example 14); assay type: in vivo, mouse; details: single i.v. dose 30 mg/kg, four weeks after injection, 24-hour period
Experimental: as §1
Four weeks after injection, the activity of all treated mice was determined using a cage running wheel test. Each mouse was individually placed into cages with a running wheel for a 24-hour period. The 24-hour period involved five hours of light on followed by thirteen hours of darkness, and ending with six hours of light. The total distance traveled (in meters, m) by each mouse on the running wheel was continuously collected throughout the 24-hour period and subsequently binned into discrete one-hour increments.

[5] = tested on: DUX4; assay: expression of DUX4-associated genes in FSHD patient-derived myotubes (Example 26); assay type: cell-based
Experimental: FSHD patient-derived myotubes were treated with FM-10 conjugated to an anti-TfRl Fab or naked FM-10. FM-10 has the sequence 5′-[…]-3′ (SEQ ID NO: 260). Expression of mRNA transcribed from three genes known to be only expressed following DUX4 activation was subsequently measured in the myotubes. Expression of these three DUX4-associated genes was reduced, as shown in FIG. 41A (naked oligonucleotide) and 41B (Ab-oligonucleotide).

[6] = tested on: DUX4; assay: expression of downstream DUX4 genes in U-2 OS cells (Example 12); assay type: cell-based, human; details: 72 hours
Experimental: Human U-2 OS cells were dosed with the complex. Briefly, U-2 OS cells were seeded at a density of 10 k cells/well before being allowed to recover overnight. […] Cells were incubated for 72 hours before being harvested for total RNA. cDNA was then synthesized from the total RNA extracts and qPCR was performed to determine expression of downstream DUX4 genes (ZSCAN4, MBD3L2, TRIM43) in technical quadruplicate. All qPCR data were analyzed using a standard ΔΔCT method and were normalized to a plate-based negative control comprised of untreated cells (i.e., without any oligonucleotide). Results were then converted to fold change to evaluate efficacy.

[7] = tested on: DMPK; assay: DMPK expression in NHP myotubes (Example 15); assay type: cell-based; details: dose-responsive
Source text: (§2) The antisense oligonucleotides were further assessed to identify oligos that are safe in vivo (e.g., as indicated by low immunogenicity as measured by cytokine induction), and further based on manufacturability and secondary structure considerations. Three antisense oligonucleotides, […] (SEQ ID NO: 329, DMPK-ASO-1), […] (SEQ ID NO: 330, DMPK-ASO-2), and […] (SEQ ID NO: 331, DMPK-ASO-3) were selected. These oligonucleotides were then further evaluated for their ability to reduce DMPK expression in DM1 myotubes and NHP myotubes in a dose-responsive manner. The tool compound control DMPK-ASO was used as control.

[8] = tested on: DMPK; assay: DMPK transcript knockdown by oligonucleotides in RD cells (Example 21); assay type: cell-based; details: free or transfected oligonucleotide, 3 days, relative to PBS-treated cells
Experimental: DMPK-targeting oligonucleotides (e.g., ASO) were tested in rhabdomyosarcoma (RD) cells for knockdown of DMPK transcript expression. RD cells were cultured in a growth medium of DMEM with glutamine, supplemented with 10% FBS and penicillin/streptomycin until nearly confluent. Cells were then seeded into a 96 well plate at 20 K cells per well and were allowed to recover for 24 hours. Cells were then treated with free DMPK-targeting oligonucleotides or by transfection of the oligonucleotides using 0.3 µL per well of Lipofectamine MessengerMAX transfection reagent. After 3 days, total RNA was collected from cells, cDNA was synthesized and DMPK expression was measured by qPCR.

[9] = tested on: DMPK; assay: DMPK expression in DM1 myotubes (Example 15); assay type: cell-based; details: dose-responsive
Source text: as §2

[10] = biological target: human transferrin receptor 1 (human) (UniProt P02786); assay: Carterra LSA biosensor, IgG captured on anti-IgG lawn, hTfR1 injected, 25C, 1:1 fit
human transferrin receptor 1 (human), sequence (P02786 89-760 limits assumed): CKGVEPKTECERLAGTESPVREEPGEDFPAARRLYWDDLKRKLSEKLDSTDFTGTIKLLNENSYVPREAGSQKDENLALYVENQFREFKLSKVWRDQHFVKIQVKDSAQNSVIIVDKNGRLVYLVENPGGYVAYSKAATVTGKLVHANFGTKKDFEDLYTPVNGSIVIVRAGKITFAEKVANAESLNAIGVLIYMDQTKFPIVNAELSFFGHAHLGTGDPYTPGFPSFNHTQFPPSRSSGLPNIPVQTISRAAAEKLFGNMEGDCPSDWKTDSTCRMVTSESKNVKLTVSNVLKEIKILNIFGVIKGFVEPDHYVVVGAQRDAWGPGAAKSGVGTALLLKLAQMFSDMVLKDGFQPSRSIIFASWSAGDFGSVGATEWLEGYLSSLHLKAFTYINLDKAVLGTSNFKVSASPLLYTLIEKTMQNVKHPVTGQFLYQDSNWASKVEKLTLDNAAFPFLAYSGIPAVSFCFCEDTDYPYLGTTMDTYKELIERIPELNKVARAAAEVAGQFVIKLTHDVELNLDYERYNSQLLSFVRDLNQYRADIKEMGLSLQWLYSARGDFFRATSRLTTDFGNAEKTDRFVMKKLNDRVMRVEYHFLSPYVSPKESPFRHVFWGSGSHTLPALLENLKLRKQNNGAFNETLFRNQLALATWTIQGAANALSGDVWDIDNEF

For “CCATCCTTGGGCAGAGACCT (SEQ ID NO: 317) (all phosphorodiamidate morpholino (PMO)) [PMO 9, DMPK-targeting PMO, Intron 4-5]”, the “% DMPK Knockdown in Primary Human Myotubes” value (from here on “% DMPK Knockdown”) [1] was 41%.

In the case of “ATGACCAGGTACTGAGAAGGG (SEQ ID NO: 318) (all phosphorodiamidate morpholino (PMO)) [PMO 10, DMPK-targeting PMO, Exon 5]”, the “% DMPK Knockdown” value [1] is reported as 33%.

In the case of “AGGGCAGTGCTTACCTGAGGG (SEQ ID NO: 326) (all phosphorodiamidate morpholino (PMO)) [PMO 41, DMPK-targeting PMO, Intron 9-10]”, the “% DMPK Knockdown” value [1] is reported as 57%.

“GGCCAAACCUCGGCUUACCUGAAAU (SEQ ID NO: 261) (PMO chemistry, chemistry not fully specified) [MDX-ASO, naked exon 23 skipping PMO ASO]” was tested, and the “average less distance traveled during stage (3) relative to stage (1), open field” value [2] was “about 85%”, the creatine kinase activity [3] was “no significant benefit” and the “distance traveled on running wheel during the dark period” value [4] was “traveled considerably shorter distances”.

“GGGCATTTTAATATATCTCTGAACT (SEQ ID NO: 260) (PMO chemistry, chemistry not fully specified) [naked FM10, phosphorodiamidate morpholino oligomer (PMO) targeting DUX4]” was tested, and the “expression of three DUX4-associated genes” value [5] was “reduced”, the IC50 ([5]; MBD3L2 transcript, read-out: IC50 (nM), MBD3L2) was 1210 nM and the IC50 ([5]; TRIM43 transcript, read-out: IC50 (nM), TRIM43) was 1120 nM. The IC50 ([5]; ZSCAN4 transcript, read-out: IC50 (nM), ZSCAN4) was 643 nM, the “ZSCAN4, MBD3L2, and TRIM43 expression” value ([6]; 1 µM) was “fails to reduce” and the MDB3L2 expression ([6]; 10 µM) was “no effect”. For the same substance, the “ZSCAN4 and TRIM43 expression” value ([6]; 10 µM) was “modest reduction”.

In the case of “GAGAAGGAAATAAGACCCAGTT (SEQ ID NO: 311) (all phosphorodiamidate morpholino (PMO)) [PMO 3, DMPK-targeting PMO, intron 1-2]”, the “% DMPK Knockdown” value [1] is reported as 14%.

“TGGAGGGCCTTTTATTCGCGAGG (SEQ ID NO: 323) (all phosphorodiamidate morpholino (PMO)) [PMO 15, DMPK-targeting PMO, polyA]” was tested, and the “% DMPK Knockdown” value [1] was 66%.

In the case of “CGGAGCTCACCAGGTAGTTCT (SEQ ID NO: 325) (all phosphorodiamidate morpholino (PMO)) [PMO 40, DMPK-targeting PMO, Intron 4-5]”, the “% DMPK Knockdown” value [1] is reported as 73%.

For “ACGATGGGCTCCGCTGGG (SEQ ID NO: 316) (all phosphorodiamidate morpholino (PMO)) [PMO 8, DMPK-targeting PMO, Exon 2]”, the “% DMPK Knockdown” value [1] was 60%.

For “TCCGCTGGGTGGTGGGAAAAGAA (SEQ ID NO: 314) (all phosphorodiamidate morpholino (PMO)) [PMO 6, DMPK-targeting PMO, Exon 2]”, the “% DMPK Knockdown” value [1] was 9%.

For “ATGGGCTCCGCTGGGTGGTGG (SEQ ID NO: 315) (all phosphorodiamidate morpholino (PMO)) [PMO 7, DMPK-targeting PMO, Exon 2]”, the “% DMPK Knockdown” value [1] was 11%.

In the case of “CCTTCTCTCTGCCTCTCAGCTT (SEQ ID NO: 312) (all phosphorodiamidate morpholino (PMO)) [PMO 4, DMPK-targeting PMO, intron 1-2]”, the “% DMPK Knockdown” value [1] is reported as 58%.

In the case of “CCCAGCGCCCACCAGUCACA (SEQ ID NO: 330) (chemistry not given here) [DMPK-ASO-2, DMPK-targeting antisense oligonucleotide]”, the “reduction of DMPK expression in NHP myotubes” value (“reduction … in NHP myotubes” below) [7] is reported as “dose-dependently reducing DMPK”, the DMPK expression level [8] is reported as “reduced” and the “reduction of DMPK expression in DM1 myotubes” value (“reduction … in DM1 myotubes” for short) [9] is reported as “dose-dependently reducing DMPK”.

“GCCTAGGGACCTGCGGGAGAG (SEQ ID NO: 321) (all phosphorodiamidate morpholino (PMO)) [PMO 13, DMPK-targeting PMO, Exon 15]” was tested, and the “% DMPK Knockdown” value [1] was 62%.

With “anti-TfR1 antibody OKT9 (mouse IgG, control)” the Kd [10] was 0.536 nM and the kon [10] was 774000 M⁻¹ s⁻¹.

“TCCACCCTGACTCCAGGTGAC (SEQ ID NO: 310) (all phosphorodiamidate morpholino (PMO)) [PMO 2, DMPK-targeting PMO, intron 1-2]” was tested, and the “% DMPK Knockdown” value [1] was 16%.

For “CAGGTGACAGTTCAGGTGCAG (SEQ ID NO: 309) (all phosphorodiamidate morpholino (PMO)) [PMO 1, DMPK-targeting PMO, intron 1-2]”, the “% DMPK Knockdown” value [1] was 59%.

With “CCACCCTCTGTCTGTCTCC (SEQ ID NO: 313) (all phosphorodiamidate morpholino (PMO)) [PMO 5, DMPK-targeting PMO, intron 1-2]” the “% DMPK Knockdown” value [1] was 64%.

For “CCAUCUCGGCCGGAAUCCGC (SEQ ID NO: 331) (chemistry not given here) [DMPK-ASO-3, DMPK-targeting antisense oligonucleotide]”, the “reduction … in NHP myotubes” value [7] was “dose-dependently reducing DMPK”, the DMPK expression level [8] was “reduced” and the “reduction … in DM1 myotubes” value [9] was “dose-dependently reducing DMPK”.

In the case of “TAGGCACTCACCCACTGCAAGA (SEQ ID NO: 324) (all phosphorodiamidate morpholino (PMO)) [PMO 39, DMPK-targeting PMO, Exon 1]”, the “% DMPK Knockdown” value [1] is reported as 69%.

“GCCTTTTATTCGCGAGGGTCGG (SEQ ID NO: 322) (all phosphorodiamidate morpholino (PMO)) [PMO 14, DMPK-targeting PMO, polyA]” was tested, and the “% DMPK Knockdown” value [1] was 73%.

For “AGGTACTGAGAAGGGTTCGTC (SEQ ID NO: 319) (all phosphorodiamidate morpholino (PMO)) [PMO 11, DMPK-targeting PMO, Exon 5]”, the “% DMPK Knockdown” value [1] was 40%.

For “TAGGGACCTGCGGAGAGGGCGA (SEQ ID NO: 320) (all phosphorodiamidate morpholino (PMO)) [PMO 12, DMPK-targeting PMO, Exon 15]”, the “% DMPK Knockdown” value [1] was 35%.

With “GCGUAGAAGGGCGUCUGCCC (SEQ ID NO: 329) (chemistry not given here) [DMPK-ASO-1, DMPK-targeting antisense oligonucleotide]” the “reduction … in NHP myotubes” value [7] was “dose-dependently reducing DMPK”, the DMPK expression level [8] was “reduced” and the “reduction … in DM1 myotubes” value [9] was “dose-dependently reducing DMPK”.
